{"source": "patent US8993606B2", "about": "“Oral formulations for treating metal overload” (FerroKin BioSciences, Inc., priority 2011, dated 2015)", "type_in_all_cases": "physicochemical", "key": {"[1]": {"experiment": "Solvent grinding experiments of magnesium salt form A, XRPD result", "settings": "solvent printed as — (none)", "from_the_text": "The results of solvent grinding experiments of (S)-3′-(OH)-DADFT-PE magnesium salt form A are given below in Table 39, wherein LC stands for low crystallinity."}, "[2]": {"experiment": "Slurry experiments of magnesium salt form A, XRPD result", "design": "key: IS stands for insufficient solid", "from_the_text": "The results of slurry experiments of (S)-3′-(OH)-DADFT-PE magnesium salt form A are given below in Table 36, wherein d stands for day, and IS stands for insufficient solid."}, "[3]": {"experiment": "Vapor stress experiments of amorphous magnesium salt, XRPD result", "design": "key: IS stands for insufficient solid", "from_the_text": "The results of vapor stress experiments of amorphous (S)-3′-(OH)-DADFT-PE magnesium salt are given below in Table 37, wherein LC stands for low crystallinity and IS stands for insufficient solid."}, "[4]": {"experiment": "Vapor diffusion experiments of amorphous magnesium salt, XRPD result", "settings": "antisolvent Hexanes", "from_the_text": "The results of vapor diffusion experiments of amorphous (S)-3′-(OH)-DADFT-PE magnesium salt are given below in Table 38, wherein LC stands for low crystallinity."}, "[5]": {"experiment": "Aqueous solubility of salts", "settings": "tromethamine salt; read-out: aqueous solubility", "from_the_text": "Typically, oral formulations described herein facilitate solubilizing an active ingredient (e.g., a desazadesferrithiocin analog, salt or polymorph) at a desired amount or rate suitable for the treatment of metal overload. As used herein, the term “solubility” is generally intended to be synonymous with the term “aqueous solubility,” and refers to the ability, and the degree of the ability, of a compound to dissolve in water or an aqueous solvent or buffer, as might be found under physiological conditions. Aqueous solubility is, in and of itself, a useful quantitative measure, but it has additional utility as a correlate and predictor, with some limitations which will be clear to those of skill in the art, of oral bioavailability. Typically, a soluble compound is generally desirable, and the more soluble, the better. In liquid formulations, solubility is typically reported in mg/mL, but other measures, such as g/g, may be used. Solubilities typically deemed acceptable may range from 1 mg/mL into the hundreds or thousands of mg/mL.\nSolubility may be measured under varying conditions. For example, it may be measured under conditions similar to those found in the body, such as at gastric pH or at physiologic or near-physiologic pH. “Gastric pH” as used herein means about pH 1. […]"}, "[6]": {"experiment": "Dynamic vapor sorption/desorption (DVS)", "from_the_text": "As described above, Form D was obtained via DVS experimentation with Form B, and Form B was generated with crystallization experiments using solvent mixtures containing methanol or water (e.g., MeOH/acetone, IPA/MeOH, heptane/MeOH, water (solvent grinding), water (antisolvent precipitation), or water (slurry at ambient)). DVS experimentation with Form B is as follows: Dynamic vapor sorption/desorption (DVS) data were collected on a VTI SGA-100 Vapor Sorption Analyzer. Sorption and desorption data were collected over a range of 5% to 95% relative humidity (RH) at 10% RH intervals under a nitrogen purge. Samples were not dried prior to analysis. Equilibrium criteria used for analysis were less than 0.0100% weight change in 5 minutes, with a maximum equilibration time of 3 hours if the weight criterion was not met. Data were not corrected for the initial moisture content of the sample. Sodium chloride and polyvinylpyrrolidine were used as calibration standards."}, "[7]": {"experiment": "Relative humidity stress (deliquescence, hygroscopicity)", "settings": "~75% RH stress"}}, "note": "Structures can show the parent of a compound that is named as a salt.", "data": [{"smiles": "COCCOCCOCCOc1cccc(C2=N[C@@](C)(C(=O)[O-])CS2)c1O.COCCOCCOCCOc1cccc(C2=N[C@@](C)(C(=O)[O-])CS2)c1O.[Mg+2]", "note": "[listing 1 of 2 here]", "values": [{"measurement": "XRPD Result", "setting": "[1]", "value": "A (LC)"}, {"measurement": "XRPD Result", "setting": "[2]; solvent ACN/THF (1:1), 60° C./4 d", "value": "A + peaks"}, {"measurement": "XRPD Result", "setting": "[2]; solvent EtOH/H2O (1:1), Ambient", "value": "IS"}, {"measurement": "XRPD Result", "setting": "[2]; solvent EtOH/H2O (1:9), Ambient", "value": "IS"}, {"measurement": "XRPD Result", "setting": "[2]; solvent Heptane/DCM (2:8), Ambient", "value": "A (LC)"}, {"measurement": "XRPD Result", "setting": "[2]; solvent Heptane/EtOH (2:8), Ambient", "value": "Amorphous"}, {"measurement": "XRPD Result", "setting": "[2]; solvent IPA, 60° C./4 d", "value": "Amorphous"}, {"measurement": "XRPD Result", "setting": "[2]; solvent IPA/Acetone (1:1), Ambient", "value": "IS"}, {"measurement": "XRPD Result", "setting": "[2]; solvent Water, 60° C./1 d", "value": "Amorphous"}]}, {"smiles": "COCCOCCOCCOc1cccc(C2=N[C@@](C)(C(=O)[O-])CS2)c1O.COCCOCCOCCOc1cccc(C2=N[C@@](C)(C(=O)[O-])CS2)c1O.[Mg+2]", "note": "[listing 2 of 2 here]", "values": [{"measurement": "XRPD Result", "setting": "[3]; solvent 1,4-Dioxane", "value": "IS"}, {"measurement": "XRPD Result", "setting": "[3]; solvent Acetone", "value": "A (LC)"}, {"measurement": "XRPD Result", "setting": "[3]; solvent DCM", "value": "IS"}, {"measurement": "XRPD Result", "setting": "[3]; solvent EtOAc", "value": "IS"}, {"measurement": "XRPD Result", "setting": "[3]; solvent MEK", "value": "IS"}, {"measurement": "XRPD Result", "setting": "[4]; solvent Acetone", "value": "A (LC)"}, {"measurement": "XRPD Result", "setting": "[4]; solvent DCM", "value": "A (LC)"}, {"measurement": "XRPD Result", "setting": "[4]; solvent EtOAc", "value": "A (LC)"}, {"measurement": "XRPD Result", "setting": "[4]; solvent MEK", "value": "Amorphous"}, {"measurement": "XRPD Result", "setting": "[4]; solvent THF", "value": "A (LC)"}, {"measurement": "XRPD Result", "setting": "[4]; solvent Toluene", "value": "A (LC)"}]}, {"smiles": "COCCOCCOCCOc1ccc(C2=N[C@@](C)(C(=O)O)CS2)c(O)c1", "note": "[Compound 2, Tromethamine salt of (S)-4′-(OH)-DADFT-PE]", "values": [{"measurement": "solubility", "setting": "[5]", "value": "> 124", "unit": "mg/mL"}, {"measurement": "weight gained", "setting": "[6]; above ~65% RH", "value": "~50.3", "unit": "wt %"}, {"measurement": "water uptake", "setting": "[6]; below ~65% RH", "value": "~1.5", "unit": "wt %"}, {"measurement": "deliquescence upon RH stress", "setting": "[7]", "value": "no apparent deliquescence"}]}, {"smiles": "COCCOCCOCCOc1cccc(C2=N[C@@](C)(C(=O)O)CS2)c1O", "note": "[Form B, (S)-3′-(OH)-DADFT-PE magnesium salt form B]", "values": [{"measurement": "hygroscopicity (DVS data)", "setting": "[6]", "value": "hygroscopic"}, {"measurement": "weight loss upon desorption", "setting": "[6]", "value": 26.6, "unit": "%"}, {"measurement": "additional weight gain during sorption step", "setting": "[6]; above 65% RH, without reaching equilibrium weight", "value": 21.2, "unit": "%"}, {"measurement": "weight loss upon equilibrium", "setting": "[6]; at 5% RH", "value": 10.8, "unit": "%"}, {"measurement": "weight gain during sorption step", "setting": "[6]; from 5% to 65% RH", "value": 5.7, "unit": "%"}]}]}
